From ChEMBL document CHEMBL1201862, “PubChem BioAssay data set” (2004)
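Interpolation was linear, between the two tested concentrations surrounding the appropriate level; five concentrations were tested over 48 hours in 96-well plates. GI50: concentration for 50% inhibition of growth.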 Activity calls are given as the source filed them. No stated cut-off is given here; in the data, active = GI50 up to about 1.1 µM and inactive = higher.

Legend:
Assay in all cases: NCI-60 cell line screen, 48 h
NCI-H522 = system: NCI-H522
CCRF-CEM = system: CCRF-CEM
DU-145 = system: DU-145
SW-620 = system: SW-620
OVCAR-3 = system: OVCAR-3
RXF 393 = system: RXF 393
HOP-92 = system: HOP-92
SK-OV-3 = system: SK-OV-3
HT-29 = system: HT-29
NCI/ADR-RES = system: NCI/ADR-RES
NCI-H460 = system: NCI-H460
T47D = system: T47D
IGROV-1 = system: IGROV-1
HCC 2998 = system: HCC 2998
U-251 = system: U-251
OVCAR-5 = system: OVCAR-5
SNB-75 = system: SNB-75
NCI-H226 = system: NCI-H226
ACHN = system: ACHN
SR = system: SR

Compound | GI50 (NCI-H522) | GI50 (CCRF-CEM) | GI50 (DU-145) | GI50 (SW-620) | GI50 (OVCAR-3) | GI50 (RXF 393) | GI50 (HOP-92) | GI50 (SK-OV-3) | GI50 (HT-29) | GI50 (NCI/ADR-RES) | GI50 (NCI-H460) | GI50 (T47D) | GI50 (IGROV-1) | GI50 (HCC 2998) | GI50 (U-251) | GI50 (OVCAR-5) | GI50 (SNB-75) | GI50 (NCI-H226) | GI50 (ACHN) | GI50 (SR)
O=[N+]([O-])C[C@@]12O[C@]3(O)C4C5CC(C6C5C3C61)C42 (stereo not given in full) | > 100 µM (inactive) | > 100 µM (inactive) | > 100 µM (inactive) | > 100 µM (inactive) | > 100 µM (inactive) | > 100 µM (inactive) | > 100 µM (inactive) | > 100 µM (inactive) | > 100 µM (inactive) | > 100 µM (inactive) | > 100 µM (inactive) | > 100 µM (inactive) | > 100 µM (inactive) | < 0.01 µM (active) | > 100 µM (inactive) | > 100 µM (inactive) | > 100 µM (inactive) | > 100 µM (inactive) | > 100 µM (inactive) | 80.2 µM (inactive)
Cc1cccc(C)c1NC(=O)C(=O)C(c1ccccc1Cl)S(=O)(=O)Cc1ccccc1Cl (stereo not given) | > 100 µM (inactive) | > 100 µM (inactive) | > 100 µM (inactive) | > 100 µM (inactive) | > 100 µM (inactive) | 29.8 µM (inactive) | 18.2 µM (inactive) | > 29.4 µM (inactive) | > 100 µM (inactive) | > 100 µM (inactive) | > 100 µM (inactive) | > 100 µM (inactive) | > 62.4 µM (inactive) | > 100 µM (inactive) | 40.6 µM (inactive) | > 100 µM (inactive) | 11.2 µM (inactive) | > 100 µM (inactive) | 53.3 µM (inactive) | > 100 µM (inactive)
CN1c2c(O)nc(N)nc2NCC1CCNc1ccc(C(=O)NC(CCC(=O)O)C(=O)O)cc1 (stereo not given) | 423 µM (inactive) | 62.5 µM (inactive) | 1330 µM (inactive) | 52.4 µM (inactive) | 857 µM (inactive) | 1010 µM (inactive) | 1490 µM (inactive) | 678 µM (inactive) | 19.6 µM (inactive) | 1920 µM (inactive) | 35.6 µM (inactive) | 1860 µM (inactive) | 1030 µM (inactive) | 993 µM (inactive) | 32.4 µM (inactive) | 1520 µM (inactive) | 553 µM (inactive) | 807 µM (inactive) | 45.4 µM (inactive) | 25.5 µM (inactive)
N#Cc1nc(C2CCC2)oc1N | > 100 µM (inactive) | 22.8 µM (inactive) | > 100 µM (inactive) | > 100 µM (inactive) | > 100 µM (inactive) | > 100 µM (inactive) | > 100 µM (inactive) | > 100 µM (inactive) | > 100 µM (inactive) | > 100 µM (inactive) | > 100 µM (inactive) | > 100 µM (inactive) | > 100 µM (inactive) | > 100 µM (inactive) | > 100 µM (inactive) | > 100 µM (inactive) | > 100 µM (inactive) | > 100 µM (inactive) | > 100 µM (inactive) | > 100 µM (inactive)
N#C/C(=C\n1ccc(=O)[nH]c1=S)C(N)=O | > 100 µM (inactive) | > 100 µM (inactive) | > 100 µM (inactive) | > 100 µM (inactive) | < 0.01 µM (active) | > 100 µM (inactive) | 73.6 µM (inactive) | > 100 µM (inactive) | > 100 µM (inactive) | > 100 µM (inactive) | > 100 µM (inactive) | > 100 µM (inactive) | > 100 µM (inactive) | > 100 µM (inactive) | > 100 µM (inactive) | > 100 µM (inactive) | > 100 µM (inactive) | > 100 µM (inactive) | > 100 µM (inactive) | > 100 µM (inactive)
C/C=C1/CN2CCC34C5=CC(=O)C(c6cc7c(cc6OC)N(C)C6=C(C(=O)OC)CC8(CC)CCCN9CCC67C98)=CC5=NC23CCC1C4C(=O)OC (stereo not given) | 11.1 µM (inactive) | 2.28 µM (inactive) | 18.7 µM (inactive) | 8.73 µM (inactive) | 14.3 µM (inactive) | 10.3 µM (inactive) | 7.85 µM (inactive) | 16.7 µM (inactive) | 14.2 µM (inactive) | 18.8 µM (inactive) | 14.3 µM (inactive) | 15.1 µM (inactive) | 17.9 µM (inactive) | 15.7 µM (inactive) | 15.2 µM (inactive) | 12.2 µM (inactive) | 8.11 µM (inactive) | 20.4 µM (inactive) | 15.6 µM (inactive) | 2.73 µM (inactive)
c1ccc(CCN2CCN=C2Cc2ccccc2)cc1 | > 100 µM (inactive) | 37.3 µM (inactive) | > 100 µM (inactive) | > 100 µM (inactive) | 71.3 µM (inactive) | > 100 µM (inactive) | 28.6 µM (inactive) | > 100 µM (inactive) | 67.1 µM (inactive) | 90.4 µM (inactive) | > 100 µM (inactive) | > 100 µM (inactive) | > 100 µM (inactive) | 21.3 µM (inactive) | > 100 µM (inactive) | > 100 µM (inactive) | > 100 µM (inactive) | > 100 µM (inactive) | > 100 µM (inactive) | > 100 µM (inactive)
Cc1ccc(S(=O)(=O)NNC(=O)c2cc(C)c(C)cc2N)cc1 | 47 µM (inactive) | > 100 µM (inactive) | > 100 µM (inactive) | > 100 µM (inactive) | 94.2 µM (inactive) | > 100 µM (inactive) | > 100 µM (inactive) | > 100 µM (inactive) | > 100 µM (inactive) | > 100 µM (inactive) | > 100 µM (inactive) | 96.6 µM (inactive) | > 100 µM (inactive) | > 100 µM (inactive) | > 100 µM (inactive) | > 100 µM (inactive) | > 100 µM (inactive) | > 100 µM (inactive) | > 100 µM (inactive) | > 100 µM (inactive)
NC(=O)C(=CNC(=S)Nc1ccccc1)C(N)=O | > 100 µM (inactive) | > 100 µM (inactive) | > 100 µM (inactive) | > 100 µM (inactive) | 1.05 µM (active) | > 100 µM (inactive) | 29.9 µM (inactive) | > 100 µM (inactive) | > 100 µM (inactive) | > 100 µM (inactive) | > 100 µM (inactive) | 97.7 µM (inactive) | > 100 µM (inactive) | > 100 µM (inactive) | > 100 µM (inactive) | > 100 µM (inactive) | 64.9 µM (inactive) | > 100 µM (inactive) | > 100 µM (inactive) | > 100 µM (inactive)
O=[N+]([O-])C1(CO)COC2(OC1)c1ccccc1-c1ccccc12 | 20 µM (inactive) | 25.2 µM (inactive) | 39.4 µM (inactive) | 21.6 µM (inactive) | > 73.5 µM (inactive) | > 55.2 µM (inactive) | > 71.1 µM (inactive) | > 100 µM (inactive) | > 63.5 µM (inactive) | > 48.3 µM (inactive) | > 77.4 µM (inactive) | 28.7 µM (inactive) | > 89.1 µM (inactive) | > 100 µM (inactive) | > 77.8 µM (inactive) | > 100 µM (inactive) | > 100 µM (inactive) | > 100 µM (inactive) | > 81.3 µM (inactive) | 40.6 µM (inactive)
CN1CCN(C(=O)CCNC(=O)Cc2ccc(C(=O)c3ccccc3)cc2)CC1 | > 100 µM (inactive) | 94.8 µM (inactive) | > 100 µM (inactive) | 97.3 µM (inactive) | > 100 µM (inactive) | > 100 µM (inactive) | > 100 µM (inactive) | > 100 µM (inactive) | > 100 µM (inactive) | > 100 µM (inactive) | > 100 µM (inactive) | > 100 µM (inactive) | > 100 µM (inactive) | 50 µM (inactive) | > 100 µM (inactive) | > 100 µM (inactive) | > 100 µM (inactive) | > 100 µM (inactive) | > 100 µM (inactive) | > 100 µM (inactive)
COC(=O)c1cnc(Cl)c([N+](=O)[O-])c1 | 1.64 µM (inactive) | 2.11 µM (inactive) | 9.57 µM (inactive) | 2.03 µM (inactive) | 14.8 µM (inactive) | 12 µM (inactive) | 2.17 µM (inactive) | 19.3 µM (inactive) | 14.3 µM (inactive) | 22.4 µM (inactive) | 14.7 µM (inactive) | 2.09 µM (inactive) | 2.79 µM (inactive) | 8.34 µM (inactive) | 2.16 µM (inactive) | 17.7 µM (inactive) | 20.4 µM (inactive) | 16.9 µM (inactive) | 12.6 µM (inactive) | 1.9 µM (inactive)
COc1ccc(C2SC(=N)Nc3c2c(C)nn3C(=O)c2ccncc2)cc1OC (stereo not given) | > 10 µM (inactive) | > 10 µM (inactive) | > 10 µM (inactive) | > 10 µM (inactive) | > 10 µM (inactive) | > 10 µM (inactive) | > 10 µM (inactive) | > 10 µM (inactive) | > 10 µM (inactive) | > 10 µM (inactive) | > 10 µM (inactive) | > 10 µM (inactive) | > 10 µM (inactive) | > 10 µM (inactive) | > 10 µM (inactive) | > 10 µM (inactive) | > 10 µM (inactive) | > 10 µM (inactive) | > 10 µM (inactive) | > 10 µM (inactive)
CCCNC(=S)N/N=C(\C)c1ccc(S(=O)(=O)N(C)c2ccccc2)cc1 | > 100 µM (inactive) | > 31.6 µM (inactive) | > 78.5 µM (inactive) | > 100 µM (inactive) | > 59.2 µM (inactive) | 15.3 µM (inactive) | 20.4 µM (inactive) | 45 µM (inactive) | > 100 µM (inactive) | > 89.3 µM (inactive) | > 100 µM (inactive) | > 67.3 µM (inactive) | 22.1 µM (inactive) | > 100 µM (inactive) | 19.7 µM (inactive) | > 67.6 µM (inactive) | 17.9 µM (inactive) | 29.1 µM (inactive) | 24.7 µM (inactive) | 49.5 µM (inactive)
